Assays:
Format in all cases: cell-based
[1] = test system: Listeria monocytogenes, Listeria innocua and Listeria ivanovii; experiment: Experiment 4: comparison of Listeria strains with pairs of substrates; conditions: for results as saccharidase substrate paired with an esterase substrate: Experiment 4, semi-solid medium
Experimental: (§1) In Table 1 above, as in the following Tables, C represents the color of the colonies after incubation, I represents the intensity of the color, and the symbol “-” corresponds to the absence of color or intensity; finally, IT defines the incubation time. It should be noted that the intensity of the color is scored on an arbitrary scale but one which is consistent for all the biological specimens and media tested. This scale is valid for this experiment as well as all those that follow. It can be defined in the following way: • 0 corresponds to no activity, • 0.1 corresponds to a trace of color, • 0.5 corresponds to very pale coloration, • 1 corresponds to clear but low-intensity coloration, • 1.5 corresponds to a degree of coloration intermediate between scores 1 and 2, • 2 corresponds to clear coloration of moderate intensity, • 2.5 corresponds to a degree of coloration intermediate between scores 2 and 3, • 3 corresponds to intense coloration, • 3.5 corresponds to a degree of coloration intermediate between scores 3 and 4, • 4 corresponds to very intense coloration.
A stock solution of each esterase substrate at a concentration of 40 g/l was made up in a mixture of 40% Dimethylsulfoxide and 60% Tween 20. And a stock solution of each saccharidase substrate was made up in Dimethylsulfoxide. An appropriate volume of the stock solution of the esterase substrate corresponding to each of the pairs described above was added to one of eight Columbia-type media while cooling to obtain a final substrate concentration of 250 mg/l. In parallel, an appropriate volume of the stock solution of the saccharidase substrate corresponding to each of the pairs described above was added to each of the eight media in order to obtain a final concentration of between 100 and 200 mg/l (depending on the substrate). These dishes were divided into three areas and then each area was inoculated with a suspension (density=0.5 McFarland) of microorganisms taken from either the Applicant's own collection or the ATCC. The dishes were incubated for 48 hours at 37° C. The colonies which grew were examined by eye after 24 and 48 hours of incubation.
Both the color and the intensity of the color of the colonies were recorded.

[2] = test system: Listeria grayi ATCC 19120; experiment: Experiment 3: detecting an esterase activity in liquid medium (API-type strips); set-up: key: —: the symbol “-” corresponds to the absence of color or intensity; 0 corresponds to no activity; 0.1 corresponds to a trace of color; 0.5 corresponds to very pale coloration; 1 corresponds to clear but low-intensity coloration; 1.5 corresponds to a degree of coloration intermediate between scores 1 and 2; 2 corresponds to clear coloration of moderate intensity; 2.5 corresponds to a degree of coloration intermediate between scores 2 and 3; 3 corresponds to intense coloration; 3.5 corresponds to a degree of coloration intermediate between scores 3 and 4; 4 corresponds to very intense coloration; conditions: 37° C.
Experimental: as §1
(§2) These substrates were lyophilized in the wells of API-type strips (Registered Trademark). Before use, the substrates contained in the wells were resuspended in an agar-free Columbia-type inoculation medium. These wells were then inoculated with a suspension (density=2 McFarland) of microorganisms taken from either the Applicant's own collection or the ATCC. The strips were incubated for 8 hours at 37° C. The colonies which grew were examined by eye after 4, 6 and 8 hours of incubation.
(§3) The intensity of the color of the colonies was recorded.

Listeria innocua 166 = experiment: as above; set-up: key: —: the symbol “-” corresponds to the absence of color or intensity; 0 corresponds to no activity; 0.1 corresponds to a trace of color; 0.5 corresponds to very pale coloration; 1 corresponds to clear but low-intensity coloration; 1.5 corresponds to a degree of coloration intermediate between scores 1 and 2; 2 corresponds to clear coloration of moderate intensity; 2.5 corresponds to a degree of coloration intermediate between scores 2 and 3; 3 corresponds to intense coloration; 3.5 corresponds to a degree of coloration intermediate between scores 3 and 4; 4 corresponds to very intense coloration; conditions: 37° C.
Experimental: as §1, §2, §3

Listeria innocua 171 = experiment: as above; set-up: key: —: the symbol “-” corresponds to the absence of color or intensity; 0 corresponds to no activity; 0.1 corresponds to a trace of color; 0.5 corresponds to very pale coloration; 1 corresponds to clear but low-intensity coloration; 1.5 corresponds to a degree of coloration intermediate between scores 1 and 2; 2 corresponds to clear coloration of moderate intensity; 2.5 corresponds to a degree of coloration intermediate between scores 2 and 3; 3 corresponds to intense coloration; 3.5 corresponds to a degree of coloration intermediate between scores 3 and 4; 4 corresponds to very intense coloration; conditions: 37° C.
Experimental: as §1, §2, §3

Listeria ivanovii 018 = experiment: as above; set-up: key: —: the symbol “-” corresponds to the absence of color or intensity; 0 corresponds to no activity; 0.1 corresponds to a trace of color; 0.5 corresponds to very pale coloration; 1 corresponds to clear but low-intensity coloration; 1.5 corresponds to a degree of coloration intermediate between scores 1 and 2; 2 corresponds to clear coloration of moderate intensity; 2.5 corresponds to a degree of coloration intermediate between scores 2 and 3; 3 corresponds to intense coloration; 3.5 corresponds to a degree of coloration intermediate between scores 3 and 4; 4 corresponds to very intense coloration; conditions: 37° C.
Experimental: as §1, §2, §3

[3] = test system: Listeria monocytogenes 092; experiment: as above; set-up: key: —: the symbol “-” corresponds to the absence of color or intensity; 0 corresponds to no activity; 0.1 corresponds to a trace of color; 0.5 corresponds to very pale coloration; 1 corresponds to clear but low-intensity coloration; 1.5 corresponds to a degree of coloration intermediate between scores 1 and 2; 2 corresponds to clear coloration of moderate intensity; 2.5 corresponds to a degree of coloration intermediate between scores 2 and 3; 3 corresponds to intense coloration; 3.5 corresponds to a degree of coloration intermediate between scores 3 and 4; 4 corresponds to very intense coloration; conditions: 37° C.
Experimental: as §1, §2, §3

[4] = test system: Listeria monocytogenes ATCC 19115; experiment: as above; set-up: key: —: the symbol “-” corresponds to the absence of color or intensity; 0 corresponds to no activity; 0.1 corresponds to a trace of color; 0.5 corresponds to very pale coloration; 1 corresponds to clear but low-intensity coloration; 1.5 corresponds to a degree of coloration intermediate between scores 1 and 2; 2 corresponds to clear coloration of moderate intensity; 2.5 corresponds to a degree of coloration intermediate between scores 2 and 3; 3 corresponds to intense coloration; 3.5 corresponds to a degree of coloration intermediate between scores 3 and 4; 4 corresponds to very intense coloration; conditions: 37° C.
Experimental: as §1, §2, §3

Listeria seeligeri 011 = experiment: as above; set-up: key: —: the symbol “-” corresponds to the absence of color or intensity; 0 corresponds to no activity; 0.1 corresponds to a trace of color; 0.5 corresponds to very pale coloration; 1 corresponds to clear but low-intensity coloration; 1.5 corresponds to a degree of coloration intermediate between scores 1 and 2; 2 corresponds to clear coloration of moderate intensity; 2.5 corresponds to a degree of coloration intermediate between scores 2 and 3; 3 corresponds to intense coloration; 3.5 corresponds to a degree of coloration intermediate between scores 3 and 4; 4 corresponds to very intense coloration; conditions: 37° C.
Experimental: as §1, §2, §3

Listeria welshimeri 023 = experiment: as above; set-up: key: —: the symbol “-” corresponds to the absence of color or intensity; 0 corresponds to no activity; 0.1 corresponds to a trace of color; 0.5 corresponds to very pale coloration; 1 corresponds to clear but low-intensity coloration; 1.5 corresponds to a degree of coloration intermediate between scores 1 and 2; 2 corresponds to clear coloration of moderate intensity; 2.5 corresponds to a degree of coloration intermediate between scores 2 and 3; 3 corresponds to intense coloration; 3.5 corresponds to a degree of coloration intermediate between scores 3 and 4; 4 corresponds to very intense coloration; conditions: 37° C.
Experimental: as §1, §2, §3

Listeria species = experiment: Experiment 3: differentiation of Listeria species in liquid medium
Experimental: as §1
These substrates were lyophilized in the wells of API-type strips (Registered Trademark). Before use, the substrates contained in the wells were resuspended in an agar-free Columbia-type inoculation medium. […]
as §3

CC(=O)N[C@H]1[C@H](Oc2c[nH]c3cc(Cl)ccc23)O[C@H](CO)[C@@H](O)[C@@H]1O [6-Chloro-3-indolyl-N-acetyl-β-D-glucosaminide]
results as saccharidase substrate paired with an esterase substrate [1]: best results

OC[C@H]1O[C@@H](Oc2c[nH]c3cc(Cl)ccc23)[C@H](O)[C@@H](O)[C@@H]1O [6-Chloro-3-indolyl-β-D-glucoside]
results as saccharidase substrate paired with an esterase substrate [1]: best results

CCCC(=O)Oc1c[nH]c2ccc(Br)c(Cl)c12 [X-C4, 5-Bromo-4-chloro-3-indolyl butyrate]
I (intensity of the color) ([2]; IT 4 h): 0.5
I (intensity of the color) ([2]; IT 6 h): 1
I (intensity of the color) ([2]; IT 8 h): 2
I (intensity of the color) (Listeria innocua 166; IT 4 h): 0.5
I (intensity of the color) (Listeria innocua 166; IT 6 h): 1
I (intensity of the color) (Listeria innocua 166; IT 8 h): 2
I (intensity of the color) (Listeria innocua 171; IT 4 h): 0.5
I (intensity of the color) (Listeria innocua 171; IT 6 h): 1
I (intensity of the color) (Listeria innocua 171; IT 8 h): 2
I (intensity of the color) (Listeria ivanovii 018; IT 4 h): 0.5
I (intensity of the color) (Listeria ivanovii 018; IT 6 h): 1
I (intensity of the color) (Listeria ivanovii 018; IT 8 h): 2
I (intensity of the color) ([3]; IT 4 h): 2
I (intensity of the color) ([3]; IT 6 h): 2
I (intensity of the color) ([3]; IT 8 h): 3
I (intensity of the color) ([4]; IT 4 h): 1
I (intensity of the color) ([4]; IT 6 h): 2
I (intensity of the color) ([4]; IT 8 h): 3
I (intensity of the color) (Listeria seeligeri 011; IT 4 h): 0.5
I (intensity of the color) (Listeria seeligeri 011; IT 6 h): 1
I (intensity of the color) (Listeria seeligeri 011; IT 8 h): 2
I (intensity of the color) (Listeria welshimeri 023; IT 4 h): 0.5
I (intensity of the color) (Listeria welshimeri 023; IT 6 h): 1
I (intensity of the color) (Listeria welshimeri 023; IT 8 h): 2
differentiation between L. monocytogenes and other species belonging to the same genus (Listeria species): gave a contrast in color

OC[C@H]1O[C@H](Oc2c[nH]c3cc(Cl)ccc23)[C@@H](O)[C@@H](O)[C@@H]1O [6-Chloro-3-indolyl-α-D-mannoside]
results as saccharidase substrate paired with an esterase substrate [1]: best results

CC(=O)Oc1c[nH]c2ccccc12 [Y-C2, 3-Indolyl acetate]
I (intensity of the color) ([2]; IT 4 h): 3
I (intensity of the color) ([2]; IT 6 h): 4
I (intensity of the color) ([2]; IT 8 h): 4
I (intensity of the color) (Listeria innocua 166; IT 4 h): 3
I (intensity of the color) (Listeria innocua 166; IT 6 h): 3
I (intensity of the color) (Listeria innocua 166; IT 8 h): 4
I (intensity of the color) (Listeria innocua 171; IT 4 h): 3
I (intensity of the color) (Listeria innocua 171; IT 6 h): 3
I (intensity of the color) (Listeria innocua 171; IT 8 h): 4
I (intensity of the color) (Listeria ivanovii 018; IT 4 h): 3
I (intensity of the color) (Listeria ivanovii 018; IT 6 h): 4
I (intensity of the color) (Listeria ivanovii 018; IT 8 h): 4
I (intensity of the color) ([3]; IT 4 h): 4
I (intensity of the color) ([3]; IT 6 h): 4
I (intensity of the color) ([3]; IT 8 h): 4
I (intensity of the color) ([4]; IT 4 h): 3
I (intensity of the color) ([4]; IT 6 h): 4
I (intensity of the color) ([4]; IT 8 h): 4
I (intensity of the color) (Listeria seeligeri 011; IT 4 h): 3
I (intensity of the color) (Listeria seeligeri 011; IT 6 h): 3
I (intensity of the color) (Listeria seeligeri 011; IT 8 h): 4
I (intensity of the color) (Listeria welshimeri 023; IT 4 h): 3
I (intensity of the color) (Listeria welshimeri 023; IT 6 h): 4
I (intensity of the color) (Listeria welshimeri 023; IT 8 h): 4

CC(=O)Oc1c[nH]c2ccc(Br)c(Cl)c12 [X-C2, 5-Bromo-4-chloro-3-indolyl acetate]
I (intensity of the color) ([2]; IT 4 h): 2
I (intensity of the color) ([2]; IT 6 h): 2
I (intensity of the color) ([2]; IT 8 h): 3
I (intensity of the color) (Listeria innocua 166; IT 4 h): 3
I (intensity of the color) (Listeria innocua 166; IT 6 h): 4
I (intensity of the color) (Listeria innocua 166; IT 8 h): 4
I (intensity of the color) (Listeria innocua 171; IT 4 h): 4
I (intensity of the color) (Listeria innocua 171; IT 6 h): 4
I (intensity of the color) (Listeria innocua 171; IT 8 h): 4
I (intensity of the color) (Listeria ivanovii 018; IT 4 h): 3
I (intensity of the color) (Listeria ivanovii 018; IT 6 h): 3
I (intensity of the color) (Listeria ivanovii 018; IT 8 h): 4
I (intensity of the color) ([3]; IT 4 h): 3
I (intensity of the color) ([3]; IT 6 h): 4
I (intensity of the color) ([3]; IT 8 h): 4
I (intensity of the color) ([4]; IT 4 h): 3
I (intensity of the color) ([4]; IT 6 h): 4
I (intensity of the color) ([4]; IT 8 h): 4
I (intensity of the color) (Listeria seeligeri 011; IT 4 h): 3
I (intensity of the color) (Listeria seeligeri 011; IT 6 h): 3
I (intensity of the color) (Listeria seeligeri 011; IT 8 h): 4
I (intensity of the color) (Listeria welshimeri 023; IT 4 h): 3
I (intensity of the color) (Listeria welshimeri 023; IT 6 h): 4
I (intensity of the color) (Listeria welshimeri 023; IT 8 h): 4

CCCCCCCCC(=O)Oc1c[nH]c2ccc(Br)c(Cl)c12 [5-Bromo-4-chloro-3-indolyl nonanoate]
contrast ([1]; together with a saccharidase substrate based on 6-Chloro-3-indolyl, whatever the target activity): best contrast

Source: patent US7407775B2, “Method for identifying Listeria monocytogenes and culture medium” (Biomerieux S.A., priority 2000, dated 2008)
